Values after ≈ are worked out from the molar mass of the structure shown.
Columns and labels:
C. difficile ATCC 43598 = assay: MIC and MBC, broth microdilution; type: cell-based, Clostridium difficile; details: Clostridioides difficile, ATCC43598
Method: (§1) MIC50 and MIC90 are the minimum concentration of each agent that inhibited growth of 50% and 90% of the tested isolates, respectively. The minimum bactericidal concentration (MBC) of these drugs was tested by plating 5 μL from wells with no growth onto BHIS agar plates. The MBC was categorized as the lowest concentration that reduced bacterial growth by 99.9% MIC50 and MIC90 are the minimum concentration of each agent that inhibited the growth of 50% and 90% of the tested isolates, respectively. The minimum bactericidal concentration (MBC) of these drugs was tested by plating 5 μL from wells with no growth onto BHIS agar plates. The MBC was categorized as the lowest concentration that reduced bacterial growth by 99.9% [29-31].

C. difficile ATCC 700057 = assay: MIC and MBC, broth microdilution; type: cell-based, Clostridium difficile; details: Clostridioides difficile, ATCC700057
Method: as §1

C. difficile ATCC 9689 = assay: MIC and MBC, broth microdilution; type: cell-based, Clostridium difficile; details: Clostridioides difficile, ATCC9689
Method: as §1

[1] = test system: C. difficile ATCC BAA-1870; assay: MIC and MBC, broth microdilution; type: cell-based, Clostridium difficile; details: Clostridioides difficile, ATCCBAA1870
Method: as §1

C. difficile HM-89 = assay: MIC and MBC, broth microdilution; type: cell-based, Clostridium difficile; details: Clostridioides difficile, HM89
Method: as §1

C. difficile I1 = assay: MIC and MBC, broth microdilution; type: cell-based, Clostridium difficile; details: Clostridioides difficile, I1
Method: as §1

C. difficile I2 = assay: MIC and MBC, broth microdilution; type: cell-based, Clostridium difficile; details: Clostridioides difficile, I2
Method: as §1

C. difficile I4 = assay: MIC and MBC, broth microdilution; type: cell-based, Clostridium difficile; details: Clostridioides difficile, I4
Method: as §1

C. difficile NR-49277 = assay: MIC and MBC, broth microdilution; type: cell-based, Clostridium difficile; details: Clostridioides difficile, NR49277
Method: as §1

C. difficile NR-49281 = assay: MIC and MBC, broth microdilution; type: cell-based, Clostridium difficile; details: Clostridioides difficile, NR49281
Method: as §1

C. difficile NR-49284 = assay: MIC and MBC, broth microdilution; type: cell-based, Clostridium difficile; details: Clostridioides difficile, NR49284
Method: as §1

C. difficile NR-49286 = assay: MIC and MBC, broth microdilution; type: cell-based, Clostridium difficile; details: Clostridioides difficile, NR49286
Method: as §1

C. difficile NR-49290 = assay: MIC and MBC, broth microdilution; type: cell-based, Clostridium difficile; details: Clostridioides difficile, NR49290
Method: as §1

C. difficile P11 = assay: MIC and MBC, broth microdilution; type: cell-based, Clostridium difficile; details: Clostridioides difficile, P11
Method: as §1

C. difficile P13 = assay: MIC and MBC, broth microdilution; type: cell-based, Clostridium difficile; details: Clostridioides difficile, P13
Method: as §1

C. difficile P1 = assay: MIC and MBC, broth microdilution; type: cell-based, Clostridium difficile; details: Clostridioides difficile, P1
Method: as §1

C. difficile P24 = assay: MIC and MBC, broth microdilution; type: cell-based, Clostridium difficile; details: Clostridioides difficile, P24
Method: as §1

C. difficile P2 = assay: MIC and MBC, broth microdilution; type: cell-based, Clostridium difficile; details: Clostridioides difficile, P2
Method: as §1

C. difficile P7 = assay: MIC and MBC, broth microdilution; type: cell-based, Clostridium difficile; details: Clostridioides difficile, P7
Method: as §1

C. difficile P8 = assay: MIC and MBC, broth microdilution; type: cell-based, Clostridium difficile; details: Clostridioides difficile, P8
Method: as §1

Bacteroides dorei HM-29 = assay: MIC against normal gut microflora, broth microdilution; type: cell-based; details: Phocaeicola dorei, HM29
Method: (§2) In vitro antimicrobial evaluation of diiodohydroxyquinoline against normal microflora. The broth microdilution assay was utilized to determine the MICs of DIHQ and control antibiotics against commensal organisms that compose he human gut microflora, as described elsewhere. A bacterial solution equivalent to 0.5 McFarland standard was prepared and diluted in BHIS broth (for Bifidobacterium and Bacteroides) or in MRS broth (for Lactobacillus) to achieve a bacterial concentration of about 5×10^5 CFU/mL. Then, drugs were added and serially diluted along the plates.

Bacteroides dorei HM-717 = assay: as above; type: cell-based; details: Phocaeicola dorei, HM717
Method: as §2

Bacteroides dorei HM-718 = assay: as above; type: cell-based; details: Phocaeicola dorei, HM718
Method: as §2

[2] = test system: Bacteroides fragilis HM-709; assay: as above; type: cell-based; details: Bacteroides fragilis, HM709
Method: as §2

[3] = test system: Bacteroides fragilis HM-710; assay: as above; type: cell-based; details: Bacteroides fragilis, HM710
Method: as §2

[4] = test system: Bacteroides fragilis HM-711; assay: as above; type: cell-based; details: Bacteroides fragilis, HM711
Method: as §2

[5] = test system: Bacteroides fragilis HM-714; assay: as above; type: cell-based; details: Bacteroides fragilis, HM714
Method: as §2

[6] = test system: Bifidobacterium adolescentis HM-633; assay: as above; type: cell-based; details: Bifidobacterium adolescentis, HM633
Method: as §2

[7] = test system: Bifidobacterium breve HM-1120; assay: as above; type: cell-based; details: Bifidobacterium breve, HM1120
Method: as §2

[8] = test system: Bifidobacterium longum HM-845; assay: as above; type: cell-based; details: Bifidobacterium longum, HM845
Method: as §2

SMILES: CN[C@H](CC(C)C)C(=O)N[C@H]1C(=O)N[C@@H](CC(N)=O)C(=O)N[C@H]2C(=O)N[C@H]3C(=O)N[C@H](C(=O)N[C@H](C(=O)O)c4cc(O)cc(O)c4-c4cc3ccc4O)[C@H](O)c3ccc(c(Cl)c3)Oc3cc2cc(c3O[C@@H]2O[C@H](CO)[C@@H](O)[C@H](O)[C@H]2O[C@H]2C[C@](C)(N)[C@H](O)[C@H](C)O2)Oc2ccc(cc2Cl)[C@H]1O [Vancomycin, vancomycin]
- MBC (C. difficile ATCC 43598): 1 µg/mL (≈ 0.69 µM)
- MIC (C. difficile ATCC 43598): 1 µg/mL (≈ 0.69 µM)
- MBC (C. difficile ATCC 700057): 0.5 µg/mL (≈ 0.345 µM)
- MIC (C. difficile ATCC 700057): 0.5 µg/mL (≈ 0.345 µM)
- MBC (C. difficile ATCC 9689): 1 µg/mL (≈ 0.69 µM)
- MIC (C. difficile ATCC 9689): 0.5 µg/mL (≈ 0.345 µM)
- MBC [1]: 1 µg/mL (≈ 0.69 µM)
- MIC [1]: 1 µg/mL (≈ 0.69 µM)
- MBC (C. difficile HM-89): 1 µg/mL (≈ 0.69 µM)
- MIC (C. difficile HM-89): 1 µg/mL (≈ 0.69 µM)
- MBC (C. difficile I1): 1 µg/mL (≈ 0.69 µM)
- MIC (C. difficile I1): 1 µg/mL (≈ 0.69 µM)
- MBC (C. difficile I2): 1 µg/mL (≈ 0.69 µM)
- MIC (C. difficile I2): 1 µg/mL (≈ 0.69 µM)
- MBC (C. difficile I4): 0.5 µg/mL (≈ 0.345 µM)
- MIC (C. difficile I4): 0.5 µg/mL (≈ 0.345 µM)
- MBC (C. difficile NR-49277): 1 µg/mL (≈ 0.69 µM)
- MIC (C. difficile NR-49277): 1 µg/mL (≈ 0.69 µM)
- MBC (C. difficile NR-49281): 0.25 µg/mL (≈ 0.173 µM)
- MIC (C. difficile NR-49281): 0.25 µg/mL (≈ 0.173 µM)
- MBC (C. difficile NR-49284): 0.5 µg/mL (≈ 0.345 µM)
- MIC (C. difficile NR-49284): 0.25 µg/mL (≈ 0.173 µM)
- MBC (C. difficile NR-49286): 0.5 µg/mL (≈ 0.345 µM)
- MIC (C. difficile NR-49286): 0.25 µg/mL (≈ 0.173 µM)
- MBC (C. difficile NR-49290): 1 µg/mL (≈ 0.69 µM)
- MIC (C. difficile NR-49290): 0.5 µg/mL (≈ 0.345 µM)
- MBC (C. difficile P11): 1 µg/mL (≈ 0.69 µM)
- MIC (C. difficile P11): 1 µg/mL (≈ 0.69 µM)
- MBC (C. difficile P13): 0.5 µg/mL (≈ 0.345 µM)
- MIC (C. difficile P13): 0.5 µg/mL (≈ 0.345 µM)
- MBC (C. difficile P1): 0.5 µg/mL (≈ 0.345 µM)
- MIC (C. difficile P1): 0.5 µg/mL (≈ 0.345 µM)
- MBC (C. difficile P24): 0.5 µg/mL (≈ 0.345 µM)
- MIC (C. difficile P24): 0.5 µg/mL (≈ 0.345 µM)
- MBC (C. difficile P2): 1 µg/mL (≈ 0.69 µM)
- MIC (C. difficile P2): 1 µg/mL (≈ 0.69 µM)
- MBC (C. difficile P7): 0.5 µg/mL (≈ 0.345 µM)
- MIC (C. difficile P7): 0.5 µg/mL (≈ 0.345 µM)
- MBC (C. difficile P8): 1 µg/mL (≈ 0.69 µM)
- MIC (C. difficile P8): 1 µg/mL (≈ 0.69 µM)
- MIC (Bacteroides dorei HM-29): 64 µg/mL (≈ 44.2 µM)
- MIC (Bacteroides dorei HM-717): 128 µg/mL (≈ 88.3 µM)
- MIC (Bacteroides dorei HM-718): 128 µg/mL (≈ 88.3 µM)
- MIC [2]: 64 µg/mL (≈ 44.2 µM)
- MIC [3]: 64 µg/mL (≈ 44.2 µM)
- MIC [4]: 128 µg/mL (≈ 88.3 µM)
- MIC [5]: 128 µg/mL (≈ 88.3 µM)
- MIC [6]: ≤ 1 µg/mL
- MIC [7]: ≤ 1 µg/mL
- MIC [8]: ≤ 1 µg/mL

Reference: patent US11806342B2, “Diiodohydroxyquinoline for the treatment of clostridium difficile infection” (Purdue Research Foundation, priority 2019, dated 2023)
